In patent US12448399B2, “Cereblon-based KRAS degrading PROTACs and uses related thereto” (Arvinas Operations, Inc., priority 2023, dated 2025):

Biological target: T1, KRas-G12D (Homo sapiens, UniProt P01116, G12D)
T1 construct: insert the HiBiT tag onto the N-terminus of one or more of the endogenous KRas alleles; host or cells: AsPC-1 HiBiT-KRasG12D knock-in clone (one tagged allele, two untagged KRasG12D alleles)
Experiment: HiBiT Degradation Assay (G12D), AsPC-1 HiBiT-KRasG12D cells, 24 hr
Assay type: cell-based
Settings: for DC50: AsPC-1 cells; for Dmax: ASPC1, AsPC-1 cells, maximum degradation observed
Outline: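 AsPC-1 cells with CRISPR N-terminal HiBiT knock-in on one endogenous KRasG12D allele, treated 24 hr at 37° C with compound titrations in 0.5% DMSO. Lytic HiBiT luminescence normalized to DMSO, fitted to a 4-parameter model for DC50 and Dmax. Parallel alamar blue (4 hr) checked viability.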

T1 sequence (P01116 1-188 isoform P01116-2 G12D): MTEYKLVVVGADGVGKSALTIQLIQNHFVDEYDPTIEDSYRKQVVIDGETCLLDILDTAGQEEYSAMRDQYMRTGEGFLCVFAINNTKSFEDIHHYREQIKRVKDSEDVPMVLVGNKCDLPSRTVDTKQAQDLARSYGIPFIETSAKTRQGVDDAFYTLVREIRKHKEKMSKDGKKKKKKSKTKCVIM

Compound	DC50 [µM]	Dmax [%]
C#Cc1c(F)ccc2cc(O)cc(-c3ncc4c(N5CC6CCC(C5)N6)nc(OCCN5CCC(CN6CC7(CCN(c8cccc9c8CN(C8CCC(=O)NC8=O)C9=O)CC7)C6)CC5)nc4c3F)c12 (stereo not shown) [Compound 140, 3-(4-{2-[(1-{2-[(4-{3,8-diazabicyclo[3.2.1]octan-3-yl}-7-(8-ethynyl-7-fluoro-3-hydroxynaphthalen-1-yl)-8-fluoropyrido[4,3-d]pyrimidin-2-yl)oxy]ethyl}piperidin-4-yl)methyl]-2,7-diazaspiro[3.5]nonan-7-yl}-1-oxo-2,3-dihydro-1H-isoindol-2-yl)piperidine-2,6-dione]	0.25 to 1	
CCc1cccc2cc(O)cc(-c3ncc4c(N5CC6CCC(C5)N6)nc(OCCN5CCC6(CC5)CN(c5cccc7c5CN(C5CCC(=O)NC5=O)C7=O)C6)nc4c3F)c12 (stereo not shown) [Compound 141]	> 1	
O=C1CCC(N2Cc3c(ccc(N4CCC(CN5CCC(CC6CCN(CCOc7nc(N8CC9CCC(C8)N9)c8cnc(-c9cc(O)cc(Cl)c9C9CC9)c(F)c8n7)CC6)CC5)CC4)c3F)C2=O)C(=O)N1 (stereo not shown) [Compound 142]	< 5.1	> 70
C#Cc1c(F)ccc2cccc(-c3ncc4c(N5CC6CCC(C5)N6)nc(OC[C@]56CCCN5[C@H](CN5CCN(CC7CCN(c8ccc9c(c8)CN(C8CCC(=O)NC8=O)C9=O)CC7)CC5)CC6)nc4c3F)c12 (stereo partly shown) [Compound 143]	< 5.1	
C#Cc1c(F)ccc2cccc(-c3ncc4c(N5CC6CCC(C5)N6)nc(OC[C@@H]5C[C@@H](OC6CCN(CC7CCN(c8ccc9c(c8)CN(C8CCC(=O)NC8=O)C9=O)CC7)CC6)CN5C)nc4c3F)c12 (stereo partly shown) [Compound 144]	< 5.1	
C#Cc1c(F)ccc2cccc(-c3ncc4c(N5CC6CCC(C5)N6)nc(OC[C@]56CCCN5[C@H](CN5CCN(c7ccc8c(c7)CN(C7CCC(=O)NC7=O)C8=O)CC5)CC6)nc4c3F)c12 (stereo partly shown) [Compound 145]	0.1 to 5.25	> 70
C#Cc1c(F)ccc2cccc(-c3ncc4c(N5CC6CCC(C5)N6)nc(OC[C@@]56CCCN5[C@H](CN5CCN(c7ccc8c(c7)CN(C7CCC(=O)NC7=O)C8=O)CC5)CC6)nc4c3F)c12 (stereo partly shown) [Compound 146]	0.25 to 1	
C#Cc1c(F)ccc2cccc(-c3ncc4c(N5CC6CCC(C5)N6)nc(OC[C@@]56CCCN5[C@H](CN5CCN(CC7CCN(c8ccc9c(c8)CN(C8CCC(=O)NC8=O)C9=O)CC7)CC5)CC6)nc4c3F)c12 (stereo partly shown) [Compound 147]	< 5.1	> 70
C#Cc1c(F)ccc2cc(O)cc(-c3ncc4c(N5CC6CCC(C5)N6)nc(OCCN5CCC(CN6CCN(CC7CCN(c8cc(C)c9c(c8F)CN(C8CCC(=O)NC8=O)C9=O)CC7)CC6)CC5)nc4c3F)c12 (stereo not shown) [Compound 148, 3-{5-[4-({4-[(1-{2-[(4-{3,8-diazabicyclo[3.2.1]octan-3-yl}-7-(8-ethynyl-7-fluoro-3-hydroxynaphthalen-1-yl)-8-fluoropyrido[4,3-d]pyrimidin-2-yl)oxy]ethyl}piperidin-4-yl)methyl]piperazin-1-yl}methyl)piperidin-1-yl]-4-fluoro-7-methyl-1-oxo-2,3-dihydro-1H-isoindol-2-yl}piperidine-2,6-dione]	< 5.1	> 70
C#Cc1c(F)ccc2cc(O)cc(-c3ncc4c(N5CC6CCC(C5)N6)nc(OCCN5CCC(CC6CCN(CC7CCN(c8cc(C)c9c(c8F)CN(C8CCC(=O)NC8=O)C9=O)CC7)CC6)CC5)nc4c3F)c12 (stereo not shown) [Compound 149, 3-{5-[4-({4-[(1-{2-[(4-{3,8-diazabicyclo[3.2.1]octan-3-yl}-7-(8-ethynyl-7-fluoro-3-hydroxynaphthalen-1-yl)-8-fluoropyrido[4,3-d]pyrimidin-2-yl)oxy]ethyl}piperidin-4-yl)methyl]piperidin-1-yl}methyl)piperidin-1-yl]-4-fluoro-7-methyl-1-oxo-2,3-dihydro-1H-isoindol-2-yl}piperidine-2,6-dione]	< 5.1	> 70
C#Cc1c(F)ccc2cc(O)cc(-c3ncc4c(N5CC6CCC(C5)N6)nc(OCCN5CCC6(CC5)CN(CC5CCN(c7cc(C)c8c(c7F)CN(C7CCC(=O)NC7=O)C8=O)CC5)C6)nc4c3F)c12 (stereo not shown) [Compound 150]	< 5.1	
C#Cc1c(F)ccc2cc(O)cc(-c3ncc4c(N5CC6CCC(C5)N6)nc(OC[C@@H]5C[C@@H](OC6CCN(CC7CCN(c8cc(C)c9c(c8F)CN(C8CCC(=O)NC8=O)C9=O)CC7)CC6)CN5C)nc4c3F)c12 (stereo partly drawn) [Compound 151, 3-(5-{4-[(4-{[(3R,5S)-5-{[(4-{3,8-diazabicyclo[3.2.1]octan-3-yl}-7-(8-ethynyl-7-fluoro-3-hydroxynaphthalen-1-yl)-8-fluoropyrido[4,3-d]pyrimidin-2-yl)oxy]methyl}-1-methylpyrrolidin-3-yl]oxy}piperidin-1-yl)methyl]piperidin-1-yl}-4-fluoro-7-methyl-1-oxo-2,3-dihydro-1H-isoindol-2-yl)piperidine-2,6-dione]	< 5.1	> 70
C#Cc1c(F)ccc2cc(O)cc(-c3ccc4c(N5CC6CCC(C5)N6)nc(OCCN5CCC(CC6CCN(CC7CCN(c8ccc9c(c8F)CN(C8CCC(=O)NC8=O)C9=O)CC7)CC6)CC5)nc4c3F)c12 (stereo not shown) [Compound 152]	< 5.1	
C#Cc1c(F)ccc2cc(O)cc(-c3ncc4c(N5CC6CCC(C5)N6)nc(OCCN5CCC6(CC5)CCN(CC5CCN(c7cc(C)c8c(c7F)CN(C7CCC(=O)NC7=O)C8=O)CC5)CC6)nc4c3F)c12 (stereo not shown) [Compound 153, 3-(5-{4-[(9-{2-[(4-{3,8-diazabicyclo[3.2.1]octan-3-yl}-7-(8-ethynyl-7-fluoro-3-hydroxynaphthalen-1-yl)-8-fluoropyrido[4,3-d]pyrimidin-2-yl)oxy]ethyl}-3,9-diazaspiro[5.5]undecan-3-yl)methyl]piperidin-1-yl}-4-fluoro-7-methyl-1-oxo-2,3-dihydro-1H-isoindol-2-yl)piperidine-2,6-dione]	< 5.1	> 70
C#Cc1c(F)ccc2cc(O)cc(-c3ncc4c(N5CC6CCC(C5)N6)nc(OCCN5CCC(CN6CC7(CCN(c8cc(C)c9c(c8F)CN(C8CCC(=O)NC8=O)C9=O)CC7)C6)CC5)nc4c3F)c12 (stereo not shown) [Compound 154, 3-(5-{2-[(1-{2-[(4-{3,8-diazabicyclo[3.2.1]octan-3-yl}-7-(8-ethynyl-7-fluoro-3-hydroxynaphthalen-1-yl)-8-fluoropyrido[4,3-d]pyrimidin-2-yl)oxy]ethyl}piperidin-4-yl)methyl]-2,7-diazaspiro[3.5]nonan-7-yl}-4-fluoro-7-methyl-1-oxo-2,3-dihydro-1H-isoindol-2-yl)piperidine-2,6-dione]	< 5.1	> 70
C#Cc1c(F)ccc2cccc(-c3ncc4c(N5CC6CCC(C5)N6)nc(OCCN5CCC(CN6CC7(CCN(c8ccc9c(c8F)CN(C8CCC(=O)NC8=O)C9=O)CC7)C6)CC5)nc4c3F)c12 (stereo not shown) [Compound 155]	> 1	
C#Cc1c(F)ccc2cccc(-c3ncc4c(N5CC6CCC(C5)N6)nc(OCCN5CCC6(CC5)CCN(CC5CCN(c7ccc8c(c7F)CN(C7CCC(=O)NC7=O)C8=O)CC5)CC6)nc4c3F)c12 (stereo not shown) [Compound 156]	> 1	
C#Cc1c(F)ccc2cccc(-c3ncc4c(N5CC6CCC(C5)N6)nc(OCCN5CCC(CC6CCN(CC7CCN(c8cccc9c8CN(C8CCC(=O)NC8=O)C9=O)CC7)CC6)CC5)nc4c3F)c12 (stereo not shown) [Compound 157]	> 1	
CCc1cccc2c(F)c(O)cc(-c3ncc4c(N5CC6CCC(C5)N6)nc(OCCN5CCC(CC6CCN(c7cccc8c7CN(C7CCC(=O)NC7=O)C8=O)CC6)CC5)nc4c3F)c12 (stereo not shown) [Compound 158]	> 1	≤ 25
